Experimental data: US12391737B2, “Soluble NPY2 receptor agonists” (Boehringer Ingelheim International GmbH, priority 2020, dated 2025)

Experiments:
[1] = Solubility determination; conditions: for Sol6: pH 6; for Sol7: pH 7
How it was run: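 Solubility is derived from the ratio of reversed-phase peak areas, filtered sample over a control dissolved at 1 mg/ml in 50% acetonitrile. Peptides are agitated for 2 hours at room temperature in 0.1 M sodium diphosphate at pH 6.4 or 7.0, aiming at 10 mg/ml.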

[2] = target: T1, Human Neuropeptide Y2 Receptor (Homo sapiens, UniProt P49146); experiment: Radioligand binding competition assay (RLB); conditions: Table 3, 125I-PYY(1-36) competition; read-out: Ki
T1 construct: purchased CHEMICON HTS066M
T1 sequence (P49146 1-381): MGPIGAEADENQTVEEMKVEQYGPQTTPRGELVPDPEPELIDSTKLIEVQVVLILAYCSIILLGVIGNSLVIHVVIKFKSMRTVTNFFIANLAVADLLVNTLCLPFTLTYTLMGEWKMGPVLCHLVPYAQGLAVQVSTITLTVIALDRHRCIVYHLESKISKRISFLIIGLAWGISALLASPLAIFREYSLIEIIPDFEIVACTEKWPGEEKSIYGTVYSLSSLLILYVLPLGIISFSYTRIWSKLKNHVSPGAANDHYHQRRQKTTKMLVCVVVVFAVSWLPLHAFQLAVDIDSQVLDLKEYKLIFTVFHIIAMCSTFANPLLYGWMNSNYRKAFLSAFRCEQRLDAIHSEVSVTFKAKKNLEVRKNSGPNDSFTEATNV
How it was run: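 Receptor membranes, 0.5 μg/well; buffer 50 mM HEPES/5 mM MgCl2/1 mM CaCl2/0.2% ovalbumin, pH 7.4; 2 h RT, shaking. GF/C filtration, cold HEPES/500 mM NaCl wash, scintillation count. IC50 by nonlinear regression.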

| Structure (SMILES) | Sol6 [1] [mg/mL] | Sol7 [1] [mg/mL] | Ki [2] [nM] |
| --- | --- | --- | --- |
| CC(C)CC(=O)N[C@@H](C)C(=O)N1CCC[C@H]1C(=O)N[C@@H](C)C(=O)N[C@@H](CCCCNC(=O)CCCCCNC(=O)CC[C@H](NC(=O)CCCCCCCCCCCCCCCCC(=O)O)C(=O)O)C(=O)N1CCC[C@H]1C(=O)N[C@@H](CCC(=O)O)C(=O)N[C@@H](CCC(=O)O)C(=O)N[C@@H](CC(=O)O)C(=O)N[C@@H](C)C(=O)N[C@@H](CO)C(=O)N1CCC[C@H]1C(=O)N[C@@H](CCC(=O)O)C(=O)N[C@@H](CCC(=O)O)C(=O)N[C@@H](CC(C)C)C(=O)N[C@@H](CCC(N)=O)C(=O)N[C@@H](CCCNC(=N)N)C(=O)N[C@@H](Cc1ccc(O)cc1)C(=O)N[C@@H](Cc1ccc(O)cc1)C(=O)N[C@H](C(=O)N[C@@H](CO)C(=O)N[C@@H](CC(C)C)C(=O)N[C@@H](CCCNC(=N)N)C(=O)N[C@@H](Cc1c[nH]cn1)C(=O)N[C@@H](CCC(N)=O)C(=O)N[C@@H](Cc1ccc(O)cc1)C(=O)N[C@@H](CC(N)=O)C(=O)N[C@@H](Cc1c[nH]c2ccccc12)C(=O)N[C@@H](CC(C)C)C(=O)N[C@H](C(=O)N[C@@H](CCCNC(=N)N)C(=O)N[C@@H](CCC(N)=O)C(=O)N[C@@H](CCCNC(=N)N)C(=O)N[C@@H](Cc1ccc(O)cc1)C(N)=O)[C@@H](C)O)C(C)C [Compound 32, N{alpha-4}-(3-methylbutanoyl)-N{epsilon-7}-(6-[(4S)-4-carboxy-4-(17-carboxyheptadecanamido)butanamido]hexanoyl)[4A,6A,7K,9E,18Q,22V,27Q,28Y,30W,31L]-hPYY(4-36)] | 8.2 | 9.3 | 13.6 |
| CC[C@H](C)[C@H](NC(=O)[C@H](Cc1ccc(O)cc1)NC(=O)[C@H](Cc1ccc(O)cc1)NC(=O)[C@H](CCCNC(=N)N)NC(=O)[C@H](CCC(N)=O)NC(=O)[C@H](CC(C)C)NC(=O)[C@H](CCC(=O)O)NC(=O)[C@H](CCC(=O)O)NC(=O)[C@@H]1CCCN1C(=O)[C@H](CCC(=O)O)NC(=O)[C@H](C)NC(=O)[C@H](CC(=O)O)NC(=O)[C@H](CCC(=O)O)NC(=O)[C@H](CCC(=O)O)NC(=O)[C@@H]1CCCN1C(=O)[C@H](CCCCNC(=O)CCCCCNC(=O)CC[C@H](NC(=O)CCCCCCCCCCCCCCCCC(=O)O)C(=O)O)NC(=O)[C@H](C)NC(=O)[C@@H]1CCCN1C(=O)[C@H](C)NC(=O)CC(C)C)C(=O)N[C@@H](CO)C(=O)N[C@@H](CC(C)C)C(=O)N[C@@H](CCCNC(=N)N)C(=O)N[C@@H](Cc1c[nH]cn1)C(=O)N[C@@H](Cc1ccc(O)cc1)C(=O)N[C@@H](Cc1ccc(O)cc1)C(=O)N[C@@H](CC(N)=O)C(=O)N[C@@H](Cc1c[nH]c2ccccc12)C(=O)N[C@@H](CC(C)C)C(=O)N[C@H](C(=O)N[C@@H](CCCNC(=N)N)C(=O)N[C@@H](CCC(N)=O)C(=O)N[C@@H](CCCNC(=N)N)C(=O)N[C@@H](Cc1ccc(O)cc1)C(N)=O)[C@@H](C)O [Compound 33, N{alpha-4}-(3-methylbutanoyl)-N{epsilon-7}-(6-[(4S)-4-carboxy-4-(17-carboxyheptadecanamido)butanamido]hexanoyl)[4A,6A,7K,9E,13E,18Q,22I,28Y,30W,31L]-hPYY(4-36)] | 7.2 | 8.3 | 2.53 |
